US11312712B2, “Azabenzimidazoles and their use as AMPA receptor modulators” (Janssen Pharmaceutica NV, priority 2015, dated 2022)

molecular target: GluA1o-γ8 (GRIA1o-CACNG8 fusion construct) (Homo sapiens (Human), UniProt P42261+Q8WXS5); experiment: Calcium flux assay (FLIPR), inhibition of TARP γ8 dependent AMPA receptor activity; assay type: cell-based; details: GluA1o-γ8 (GRIA1o-CACNG8 fusion) in HEK293 cells, calcium flux after 15 μM glutamate
Source text: This assay was used to test compounds for their ability to inhibit TARP γ8 dependent AMPA receptor activity. The AMPA receptor is a non-selective cation channel activated by glutamate. Ionotropic glutamate receptors normally desensitize too rapidly to allow detectable calcium influx in a FLIPR assay (Strange et al. (2006). “Functional characterisation of homomeric ionotropic glutamate receptors GluR1-GluR6 in a fluorescence-based high throughput screening assay.” Comb Chem High Throughput Screen 9(2): 147-158). But, this desensitization is incomplete, and a substantial steady-state current remains in the sustained presence of glutamate (Cho et al. (2007). “Two families of TARP isoforms that have distinct effects on the kinetic properties of AMPA receptors and synaptic currents.” Neuron 55(6): 890-904).
An in vitro assay was used to determine the potency of test compounds as inhibitors of the glutamate response of the channel formed by GluA1o-γ8. To ensure a 1:1 stoichiometry of GluA1o and γ8 subunits in the expressed channel, a fusion of the cDNAs for GRIA1o and CACNG8 was used. Following Shi et al (2009) “The stoichiometry of AMPA receptors and TARPs varies by neuronal cell type.” Neuron 62(5): 633-640), the C-terminus of the cDNA for GRIA1o was fused to the N-terminus of the cDNA for γ8. The linker sequence was QQQQQQQQQQEFAT. Channels expressed with this construct appear to have similar properties to channels formed by co-expression of GRIA1o with an excess of CACNG8 (Shi et al. 2009). A clonal cell line in HEK293 cells stably expressing this construct, with a geneticin selection marker, was generated for use in this assay.
Cell expressing the GRIA1o-CACNG8 fusion construct were grown in a monolayer in 96- or 384-well microtiter plates. They were washed with assay buffer (135 mM NaCl, 4 mM KCl, 3 mM CaCl2, 1 mM MgCl2, 5 mM glucose, 10 mM HEPES, pH 7.4, 300 mOs) using a Biotek EL405 plate washer. The cells were then loaded with a calcium-sensitive dye (Calcium-5 or Calcium-6, Molecular Devices) and the test compounds at a range of concentrations. Calcium flux following the addition of 15 μM glutamate was monitored using a Molecular Devices FLIPR Tetra. The fluorescence in each well was normalized to the fluorescence of negative and positive control wells. The negative control wells had no added compounds, and the positive control wells had been incubated with 10 μM CP465022 (a non-subtype-selective AMPA receptor antagonist) (Lazzaro et al. (2002). “Functional characterization of CP-465,022, a selective, noncompetitive AMPA receptor antagonist.” Neuropharmacology 42(2): 143-153). The responses to glutamate as functions of the test compound concentrations were fitted to a four-parameter logistic function. The fitted parameter corresponding to the midpoint was taken to be the potency of inhibition of the compound. The data in Table 4 below illustrates the observed potentcy for the compounds described herein. pIC50 refers to the negative log of the IC50 in molar.

GluA1o-γ8 (GRIA1o-CACNG8 fusion construct), sequence (P42261 other isoform, or with tags, fused parts or gaps): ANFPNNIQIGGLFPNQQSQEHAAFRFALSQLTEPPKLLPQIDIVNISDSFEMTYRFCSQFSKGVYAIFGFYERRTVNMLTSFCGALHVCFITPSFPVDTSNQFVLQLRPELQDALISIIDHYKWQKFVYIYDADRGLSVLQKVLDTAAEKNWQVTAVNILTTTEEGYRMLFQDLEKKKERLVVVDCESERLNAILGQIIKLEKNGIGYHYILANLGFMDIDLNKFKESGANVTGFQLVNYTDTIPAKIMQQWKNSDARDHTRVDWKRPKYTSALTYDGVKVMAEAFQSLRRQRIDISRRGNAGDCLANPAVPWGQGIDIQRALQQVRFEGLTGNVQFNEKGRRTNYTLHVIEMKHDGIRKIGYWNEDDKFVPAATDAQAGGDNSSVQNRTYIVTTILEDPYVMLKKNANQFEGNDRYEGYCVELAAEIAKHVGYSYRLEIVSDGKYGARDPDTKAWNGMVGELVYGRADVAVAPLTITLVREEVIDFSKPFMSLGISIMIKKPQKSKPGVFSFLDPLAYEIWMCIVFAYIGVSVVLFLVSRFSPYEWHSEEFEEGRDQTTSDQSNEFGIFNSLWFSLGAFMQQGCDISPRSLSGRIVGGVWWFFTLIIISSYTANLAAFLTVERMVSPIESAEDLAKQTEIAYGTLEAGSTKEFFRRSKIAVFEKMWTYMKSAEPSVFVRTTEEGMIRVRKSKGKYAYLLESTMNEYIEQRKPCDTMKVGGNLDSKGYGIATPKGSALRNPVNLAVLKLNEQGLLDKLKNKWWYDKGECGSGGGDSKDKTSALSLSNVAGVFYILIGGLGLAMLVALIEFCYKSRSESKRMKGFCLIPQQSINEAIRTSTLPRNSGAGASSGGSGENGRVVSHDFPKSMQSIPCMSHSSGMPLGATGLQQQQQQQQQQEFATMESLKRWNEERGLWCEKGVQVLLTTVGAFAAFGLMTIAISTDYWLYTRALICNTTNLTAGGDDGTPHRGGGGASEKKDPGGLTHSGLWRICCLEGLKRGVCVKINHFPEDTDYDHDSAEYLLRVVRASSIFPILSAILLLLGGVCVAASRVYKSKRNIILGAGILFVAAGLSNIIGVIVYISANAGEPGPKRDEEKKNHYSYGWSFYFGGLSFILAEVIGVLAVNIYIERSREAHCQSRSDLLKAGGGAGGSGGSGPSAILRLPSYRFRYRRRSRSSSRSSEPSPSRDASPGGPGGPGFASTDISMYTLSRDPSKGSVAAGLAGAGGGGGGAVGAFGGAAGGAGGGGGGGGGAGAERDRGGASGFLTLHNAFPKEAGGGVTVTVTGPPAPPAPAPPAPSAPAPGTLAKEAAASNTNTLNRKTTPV

In order of falling IC50:
1. c1ccc(-c2nc3cccnc3n2-c2ccc3[nH]ccc3c2)cc1 [Example 26, 3-(1H-Indol-5-yl)-2-phenyl-imidazo[4,5-b]pyridine]  501 nM
2. O=c1[nH]c2ccc(-n3c(-c4ccc(F)cc4)nc4cccnc43)cc2o1 [Example 24, 6-[2-(4-Fluorophenyl)imidazo[4,5-b]pyridin-3-yl]-3H-1,3-benzoxazol-2-one]  316 nM
3. O=c1[nH]c2ccc(-n3c(-c4ccc(F)nc4)nc4cccnc43)cc2s1 [Example 28, 6-[2-(6-Fluoro-3-pyridyl)imidazo[4,5-b]pyridin-3-yl]-3H-1,3-benzothiazol-2-one]  251 nM
4. Cc1nc2ccc(C(F)(F)F)nc2n1-c1ccc2c(c1)CC(=O)N2 [Example 47, 5-[2-Methyl-5-(trifluoromethyl)imidazo[4,5-b]pyridin-3-yl]indolin-2-one]  63.1 nM
5. O=c1[nH]c2ccc(-n3c(C4CCOCC4)nc4ccc(C(F)(F)F)nc43)cc2s1 [Example 42, 6-[2-Tetrahydropyran-4-yl-5-(trifluoromethyl)imidazo[4,5-b]pyridin-3-yl]-3H-1,3-benzothiazol-2-one]  39.8 nM
6. Fc1ccc(-c2nc3cccnc3n2-c2ccc3[nH]ncc3c2)cc1 [Example 22, 2-(4-Fluorophenyl)-3-(1H-indazol-5-yl)imidazo[4,5-b]pyridine]  31.6 nM
7. O=C1Cc2cc(-n3c(-c4ccc(F)cc4)nc4cccnc43)ccc2N1 [Example 23, 5-[2-(4-Fluorophenyl)imidazo[4,5-b]pyridin-3-yl]indolin-2-one]  25.1 nM
8. O=C1Cc2cc(-n3c(-c4ccccc4)nc4cccnc43)ccc2N1 [Example 34, 5-(2-Phenylimidazo[4,5-b]pyridin-3-yl)indolin-2-one]  12.6 nM
9. O=c1[nH]c2ccc(-n3c(-c4ccc(F)cc4)nc4cccnc43)cc2[nH]1 [Example 21, 5-[2-(4-Fluorophenyl)imidazo[4,5-b]pyridin-3-yl]-1,3-dihydrobenzimidazol-2-one]  10 nM
10. O=c1[nH]c2ccc(-n3c(-c4ccccc4)nc4cccnc43)cc2s1 [Example 25, 6-(2-Phenylimidazo[4,5-b]pyridin-3-yl)-3H-1,3-benzothiazol-2-one]  10 nM
11. O=C1Cc2cc(-n3c(-c4ccc(F)cc4)nc4ccc(F)nc43)ccc2N1 [Example 37, 5-[5-Fluoro-2-(4-fluorophenyl)imidazo[4,5-b]pyridin-3-yl]indolin-2-one]  6.31 nM
12. Cc1nc2ccc(C(F)(F)F)nc2n1-c1ccc2[nH]c(=O)sc2c1 [Example 46, 6-[2-Methyl-5-(trifluoromethyl)imidazo[4,5-b]pyridin-3-yl]-3H-1,3-benzothiazol-2-one]  6.31 nM
13. O=c1[nH]c2ccc(-n3c(-c4ccc(F)cc4)nc4cccnc43)cc2s1 [Example 20, 6-[2-(4-Fluorophenyl)imidazo[4,5-b]pyridin-3-yl]-3H-1,3-benzothiazol-2-one]  5.01 nM
14. COc1ccc2nc(-c3ccccc3)n(-c3ccc4[nH]c(=O)sc4c3)c2n1 [Example 18, 6-(5-Methoxy-2-phenyl-imidazo[4,5-b]pyridin-3-yl)-3H-1,3-benzothiazol-2-one]  3.98 nM
15. Cc1ccc2nc(-c3ccc(F)cc3)n(-c3ccc4c(c3)CC(=O)N4)c2n1 [Example 35, 5-[2-(4-Fluorophenyl)-5-methyl-imidazo[4,5-b]pyridin-3-yl]indolin-2-one]  3.16 nM
16. Cc1ccc2nc(-c3ccnc(F)c3)n(-c3ccc4[nH]c(=O)sc4c3)c2n1 [Example 29, 6-[2-(2-Fluoro-4-pyridyl)-5-methyl-imidazo[4,5-b]pyridin-3-yl]-3H-1,3-benzothiazol-2-one]  2.51 nM
17. FC(F)(F)c1ccc2nc(C3CC3)n(-c3ccc4[nH]ncc4c3)c2n1 [Example 43, 2-Cyclopropyl-3-(1H-indazol-5-yl)-5-(trifluoromethyl)imidazo[4,5-b]pyridine]  2 nM
18. CC(C)(C)c1nc2ccc(C(F)(F)F)nc2n1-c1ccc2[nH]c(=O)sc2c1 [Example 19, 6-[2-tert-Butyl-5-(trifluoromethyl)imidazo[4,5-b]pyridin-3-yl]-3H-1,3-benzothiazol-2-one]  1.26 nM
19. CC(C)c1nc2ccc(C(F)(F)F)nc2n1-c1ccc2c(c1)CC(=O)N2 [Example 38, 5-[2-Isopropyl-5-(trifluoromethyl)imidazo[4,5-b]pyridin-3-yl]indolin-2-one]  1 nM
20. Cc1ccc2nc(-c3ccc(F)cc3)n(-c3ccc4[nH]c(=O)sc4c3)c2n1 [Example 27, 6-[2-(4-Fluorophenyl)-5-methyl-imidazo[4,5-b]pyridin-3-yl]-3H-1,3-benzothiazol-2-one]  0.794 nM
21. O=c1[nH]c2ccc(-n3c(-c4ccc(F)cc4)nc4ccc(C(F)(F)F)nc43)cc2s1 [Example 16, 6-[2-(4-Fluorophenyl)-5-(trifluoromethyl)imidazo[4,5-b]pyridin-3-yl]-3H-1,3-benzothiazol-2-one]  0.631 nM
22. O=C1Cc2cc(-n3c(-c4ccc(F)cc4)nc4ccc(C(F)(F)F)nc43)ccc2N1 [Example 33, 5-[2-(4-Fluorophenyl)-5-(trifluoromethyl)imidazo[4,5-b]pyridin-3-yl]indolin-2-one]  0.631 nM
23. O=C1Cc2cc(-n3c(C4CCCCC4)nc4ccc(C(F)(F)F)nc43)ccc2N1 [Example 48, 5-[2-Cyclohexyl-5-(trifluoromethyl)imidazo[4,5-b]pyridin-3-yl]indolin-2-one]  0.631 nM
24. Cc1ccc2nc(-c3ccccc3)n(-c3ccc4[nH]c(=O)sc4c3)c2n1 [Example 17, 6-(5-Methyl-2-phenyl-imidazo[4,5-b]pyridin-3-yl)-3H-1,3-benzothiazol-2-one]  0.501 nM
25. O=c1[nH]c2ccc(-n3c(-c4ccccc4)nc4ccc(Br)nc43)cc2s1 [Example 32, 6-(5-Bromo-2-phenyl-imidazo[4,5-b]pyridin-3-yl)-3H-1,3-benzothiazol-2-one]  0.501 nM
26. O=C1Cc2cc(-n3c(-c4ccccc4)nc4ccc(C(F)(F)F)nc43)ccc2N1 [Example 36, 5-[2-Phenyl-5-(trifluoromethyl)imidazo[4,5-b]pyridin-3-yl]indolin-2-one]  0.398 nM
27. O=c1[nH]c2ccc(-n3c(C4CC4)nc4ccc(C(F)(F)F)nc43)cc2s1 [Example 41, 6-[2-Cyclopropyl-5-(trifluoromethyl)imidazo[4,5-b]pyridin-3-yl]-3H-1,3-benzothiazol-2-one]  0.398 nM
28. CCc1nc2ccc(C(F)(F)F)nc2n1-c1ccc2[nH]c(=O)sc2c1 [Example 44, 6-[2-Ethyl-5-(trifluoromethyl)imidazo[4,5-b]pyridin-3-yl]-3H-1,3-benzothiazol-2-one]  0.398 nM
29. CC(C)c1nc2ccc(C(F)(F)F)nc2n1-c1ccc2[nH]c(=O)sc2c1 [Example 45, 6-[2-Isopropyl-5-(trifluoromethyl)imidazo[4,5-b]pyridin-3-yl]-3H-1,3-benzothiazol-2-one]  0.398 nM
30. O=C1Cc2cc(-n3c(C4CCC4)nc4ccc(C(F)(F)F)nc43)ccc2N1 [Example 49, 5-[2-Cyclobutyl-5-(trifluoromethyl)imidazo[4,5-b]pyridin-3-yl]indolin-2-one]  0.316 nM
31. O=c1[nH]c2ccc(-n3c(-c4ccnc(F)c4)nc4ccc(C(F)(F)F)nc43)cc2s1 [Example 31, 6-[2-(2-Fluoro-4-pyridyl)-5-(trifluoromethyl)imidazo[4,5-b]pyridin-3-yl]-3H-1,3-benzothiazol-2-one]  0.251 nM
32. O=c1[nH]c2ccc(-n3c(-c4ccc(F)cc4)nc4ccc(Cl)nc43)cc2s1 [Example 30, 6-[5-Chloro-2-(4-fluorophenyl)imidazo[4,5-b]pyridin-3-yl]-3H-1,3-benzothiazol-2-one]  0.2 nM
33. O=c1[nH]c2ccc(-n3c(C4CCCC4)nc4ccc(C(F)(F)F)nc43)cc2s1 [Example 39, 6-[2-Cyclopentyl-5-(trifluoromethyl)imidazo[4,5-b]pyridin-3-yl]-3H-1,3-benzothiazol-2-one]  0.2 nM
34. O=c1[nH]c2ccc(-n3c(C4CCCCC4)nc4ccc(C(F)(F)F)nc43)cc2s1 [Example 40, 6-[2-Cyclohexyl-5-(trifluoromethyl)imidazo[4,5-b]pyridin-3-yl]-3H-1,3-benzothiazol-2-one]  0.158 nM
